Values quoted from earlier work, collected in patent US20110015663A1, “Combination Therapies for the Treatment of Obesity” (priority 2009, published 2011).

Conditions: not given

Compound	solubility in water
G-2-beta-cyclodextrin	147 % (w/v)
triacetyl-beta-cyclodextrin	insoluble

Conditions: literature studies

Compound	weight loss for drug compared with placebo
CCN[C@@H](C)Cc1cccc(C(F)(F)F)c1 [dexfenfluramine]	about 5 % of body weight
CCCCCCCCCCC[C@@H](C[C@@H]1OC(=O)[C@H]1CCCCCC)OC(=O)[C@H](CC(C)C)NC=O [orlistat]	about 5 % of body weight
CC(C)(N)Cc1ccccc1 [phentermine]	about 5 % of body weight
CC(C)CC(N(C)C)C1(c2ccc(Cl)cc2)CCC1 (stereo not drawn) [sibutramine]	about 5 % of body weight
